US20250027086A1, “COMPOSITIONS AND METHODS FOR TREATMENT OF CANCERS USING MODIFIED siRNA-GEM AGENTS” (Sirnaomics, Inc., priority 2022, published 2025)
“Also recorded” adds a separate entry of the source. Where two headings read alike, the source gives them in different places.

Columns and labels:
MiaPaCa-2 cells = assay: Cell viability (CellTiter-Glo) in MiaPaCa-2 pancreatic cancer cells after transfection; assay type: cell-based, human; conditions: Homo sapiens, MIA PaCa-2
Experimental: (§1) MIA PaCa-2, […], LS180, HT1376, HT29, H358, H1299, OVCAR-3, HTB-9 and Panc 10.05 cells were obtained from ATCC (Rockville, MD). MiaPaCa cells were cultured in DMEM medium supplemented with 10% FBS. H358, H1299, HTB-9, N87 and Panc 10.05 cells were cultured in DMEM/10% FBS; LS180 and HT1376 in EMEM/10% FBS; HT29 cells in McCoy5A/10% FBS; OVCAR-3 cells were incubated in RPMI/20% FBS. All cells were maintained at 37 degrees C. in an atmosphere containing 5% CO^2.
(§2) The day before transfection, cells were seeded in a 384-well plate at an optimal density of between 300 and 800 cells/well. The next day, ten 3-fold serial dilutions of single, modified-backbone siRNAs or PGN6/PGN7 siRNA and Gemcitabine (GEM) mixed with siRNAs: Wee1 #7, KRAS #1, MCL1 #3 or DM2-P47 siRNAs at 1:1 ratio were prepared and combined with diluted Lipofectamine RNAiMAX (Life Technologies, Carlsbad, CA). Within 20 minutes, 10 μl of the transfection mixtures were added to the cells in a 40 μL medium. The final concentrations of siRNAs or Gemcitabine in the wells ranged from 100 nM to 0.002 nM.
(§3) Ninety-six hours following the addition of GEM or transfection mixtures, the number of viable cells was determined with CellTiter-Glo®-2.0 reagent (Promega, Madison, WI) by measuring luminescent signal using a Cytation 5 plate reader (BioTek Inc, Winooski, VT). The treatment group (n=4) mean (±SD) was compared to those of non-treated controls and were reported as relative cell viability.

OVCAR3 cells = assay: Cell viability in ovarian cancer cell line OVCAR3; assay type: cell-based; conditions: OVCAR3, 800 cells per well; FIG. 13(b)
Experimental: as §1
(§4) The day before transfection, cells were seeded in a 384-well plate at an optimal density of between 300 and 800 cells/well. […]
(§5) Ninety-six hours following the addition of GEM or transfection mixtures, the number of viable cells was determined with CellTiter-Glo®-2.0 reagent (Promega, Madison, WI) by measuring luminescent signal using a Cytation 5 plate reader (BioTek Inc, Winooski, VT). […]
(§6) Using the same or similar experimental condition as are described above in Example 1, the effects of (i) PGN7 (SEQ. ID No. 9-10) plus a non-signaling oligonucleotide (“NS”), (ii) BCLxL #5 (SEQ. ID No. 14)+NS, and (iii) PGN7 and BCLxL #5 in combination were evaluated and are shown in triple negative breast cancer (MDA-MB231) and ovarian cancer (OVCAR3) cell lines in FIGS. 13 (a)-(b). […]

MDA-MB231 cells = assay: Cell viability in triple negative breast cancer cell line MDA-MB231; assay type: cell-based; conditions: MDA-MB231, 400 cells per well; FIG. 13(a)
Experimental: as §1, §4, §5, §6

[1] = tested on: pancreatic, lung and colon cancer cell lines; assay: Cell viability in pancreatic, lung and colon cancer cell lines; assay type: cell-based
Experimental: as §1, §2, §3
Using the same experimental conditions as are described above in Example 1, the efficacy on cell viability was evaluated for PGN6 (SEQ. ID Nos. 7-8), with and without lipofentamine (“lipo”) in three types of cancer cell lines. FIG. 3 (a)-(c) show the effects of PGN6, with and without lipo on cell viability at increasing siRNA levels in pancreatic cancer cell lines. FIG. 4 (a)-(b) similarly show the effects of these variants on cell viability in lung cancer cell lines; FIG. 5 (a)-(b) show the effects of these variants on cell viability in colon cancer cell lines. All data are shown as mean±SD. […]
Using the same experimental conditions as are described above in Example 1, the efficacy of STD1 (SEQ. ID Nos. 1-2), PGN6 (SEQ. ID Nos. 7-8) and PGN7 (SEQ. ID Nos. 9-10) were evaluated in three types of cancer cell lines. […]
Using the same experimental conditions as are described above in Example 1, the efficacy of PGN7 (SEQ. ID No. 9-10) alone and its combination with WEE1 #7 (SEQ. ID No. 13) was evaluated in three types of cancer cell lines. […]
Using the same experimental conditions as are described above in Example 1, the efficacy of PGN7 (SEQ. ID No. 9-10) and the combination of BCLxL #5 (SEQ. ID No. 14) and PGN7 was evaluated in three types of cancer cell lines. […]

[2] = tested on: MIA PaCa-2 human pancreatic cancer xenograft; assay: PGN6 efficacy on pancreatic tumor growth in NOD/SCID mice inoculated with MIA PaCa-2; assay type: in vivo, mouse
Text: Twenty, 6- to 9-week old NOD/SCID female mice were purchased from the Jackson Laboratory. Each mouse was tagged for identification at the beginning of the study. Up to 5 mice were housed in a single cage with standard corn cob bedding for a minimum of three days for stabilization; bedding was changed every two weeks. Fluorescent lighting was provided on a 12-hour cycle; temperature was maintained between 68-79 degrees F. at 30-70 percent humidity. Mice were fed an 18 percent soy irradiated rodent feed (Envigo) and autoclaved acidified water (pH 2.5-3) were available to all animals ad libitum. The mice were observed daily for clinical signs of disease.
Tumor cell preparation: Cryogenic vials containing tumor cells were thawed and cultured according to the manufacturer's protocol. On the day of inoculation, cells were washed in a serum-free media, counted, and resuspended in cold serum-free media at a concentration of 3 million cells per 100 microliters. […]
Tumor measurement: Mice were monitored weekly for palpable tumors or changes in appearance or behavior. Once tumors were palpable they were measured weekly using calipers. Tumor volume was calculated using the equation: […]
Once tumors were on average between 150-250 mm^3 in volume, tumors and body weights were measured at least twice weekly for the duration of the study. […]

[3] = tested on: HT1376, HTB-9, N87 and OVCAR-3 cell lines; assay: Cell viability in urinary bladder, gastric and ovarian cancer cell lines; assay type: cell-based; conditions: HT1376, HTB-9, N87, OVCAR-3; FIGS. 9-10
Experimental: as §1, §4, §5
Using the same or similar experimental condition as are described above in Example 1, the effects of PGN7 (SEQ. ID No. 9-10), Wee1 (SEQ. ID No. 13), BCLxL #5 (SEQ. ID No. 14) or the PGN7+Wee1, or PGN+BCLxL combinations were evaluated and are shown in HT1376 (400 cells/well) and HTB-9 (800 cells/well) urinary bladder cancer cell lines, N87 (600 cells/well) gastric cancer cell line, and OVCAR-3 (800 cells/well) ovarian cancer line in FIGS. 11 (a)-(d). […]

Nc1ccn([C@@H]2O[C@H](CO)[C@@H](O)C2(F)F)c(=O)n1 [Gemcitabine, 2′, 2′-difluoro 2′-deoxycytidine]
IC50 (MiaPaCa-2 cells; in combination with lipofectamine, 96 h, n=4 (FIG. 2), read-out: IC50, MiaPaCa-2 cell viability): 8 nM | IC50 (MiaPaCa-2 cells; with lipofectamine (GEM alone for gemcitabine), FIG. 2, read-out: ID50, MiaPaCa cells): 8 nM

BCLxL #5: siRNA sequence used to target BCLxL, SEQ. ID No. 14 (no GEM) (GCGTGGAAAGCGTAGACAAGGAGAT; listed as DNA, chemistry not given here)
IC50 (OVCAR3 cells): 2.7 nM | IC50 (MDA-MB231 cells): 0.5 nM

PGN6: modified siRNA-GEM molecule (SEQ. ID No. 7-8): sense 5′-AAGAAAgAgau [GEM]UGUAU[GEM]AAU-3′; antisense 5′-AuUGAuACAGAUCuCuuucuu[GEM][GEM]dTdT-3′ (sense AAGAAAGAGATCTGTATCAAT; antisense ATTGATACAGATCTCTTTCTTCCTT; GEM modifications; dTdT overhang; modified_base 1 OTHER; 2'-O-methyl modified nucleotide; modified_base 2 OTHER; modified_base 3 OTHER; modified_base 4 OTHER; modified_base 5 OTHER; modified_base 6 OTHER; modified_base 7 OTHER; 2'-fluoro modified nucleotide; modified_b; 2'-O-me)
effectiveness with lipofectamine versus without lipofectamine ([1]; lung (FIG. 4) and colon (FIG. 5) cancer cell lines): apparently more effective | effectiveness with lipofectamine versus without lipofectamine ([1]; pancreatic lines MiaPaCa (G12C), BXPC3 (WT), Panc10.05, FIG. 3): more effective | reduction of cell viability ([1]; single siRNA against non-silencing control, pancreatic, lung, colon, FIG. 6): effective in reducing cell viability | pancreatic tumor volume / tumor growth ([2]; 2 mg/kg IV twice weekly for three weeks, with DODAB siRNA in HKP(+H), vs control, n=10, FIG. 12(a)): attenuate or prevent tumor growth; also recorded: tumors did not grow; also recorded: attenuating the growth of pancreatic tumors | body weight ([2]; 2 mg/kg twice weekly, 20 days treatment period, FIG. 12(b)): body weight remained constant

WEE1 #7: siRNA sequence used to target WEE1, SEQ. ID No. 13 (no GEM) (CGCTCTGTCAGCCTTACTA; listed as DNA, chemistry not given here)
efficacy on cell viability [3]: significant efficacy
